Legend:
PANC-1-Pac cells = assay: MTT cell viability and ZIP synergy in paclitaxel-resistant PANC-1-Pac cells; format: cell-based, human; conditions: 72 h with drug + 72 h fresh media
From the text: (§1) A paclitaxel-sensitive human PDAC cell line, PANC-1, was obtained (ATCC, CRL-1469) and the derived paclitaxel-resistant PANC-1-Pac cell line was established by gradually increasing concentrations of paclitaxel over a period of 2–4 months. Standard MTT and crystal violet assays were applied to evaluate the effect of treatment with either combinations of SCO-101 and paclitaxel or SRPK1-inhibitor and paclitaxel. Details are presented in the Online Resource.
Statistical analyses were mainly descriptive and included mean, median, range, and 95% CIs. Kaplan–Meier plots were constructed using Stata version 18 (StataCorp, 2023). In the preclinical study, the zero interaction potency (ZIP) synergy score was calculated as described by Yadav et al., to quantify the deviation from the expectation of zero interaction between drugs. A ZIP synergy score above 10 indicates synergy.
as §1, with “line PANC-1” for “line, PANC-1,”, “2-4” for “2–4”, “SCO-101/paclitaxel” for “SCO-101 and paclitaxel”, “SRPK1 inhibitor/paclitaxel.” for “SRPK1-inhibitor and paclitaxel. Details are presented in the Online Resource.”
The selection began at 1 nM, increased to 2 nM and 4 nM, and ended at 8 nM. For each drug concentration the cells were kept for three passages. To evaluate the effect of the treatment either a Crystal Violet assay or MTT (3-(4,5-dimethylthiazol-2-yl)-2,5-diphenyltetrazolium bromide) assay were applied.
The MTT was conducted according to standard conditions. In short, cells were seeded at a density of 7,000 cells/well into a 96-well. One day after seeding, the cells were experimentally treated. Control conditions consisted of either growth medium (‘untreated’) or DMSO diluted in growth medium. All treatments were performed in triplicates. The cells were then kept in the CO2 incubator at 37 °C for 72 hours and plates were incubated with 100μl 1:10 MTT (0.5 mg/ml dissolved in phosphate buffered saline) for 3 hours and hereafter stopped using 100μl/well stop buffer (50g Sodium Dodecyl Sulphate, 245 mL MiliQ H2O, 5mL 1.0 N HCl was added to dissolve the formazan crystals overnight. Optical densities were measured at 570 and 670 nm.
Experiments with 4 different concentrations of either SCO-101 or paclitaxel and their combinations were applied to test for synergy among these two compounds in both the PANC-1 parental and -Paclitaxel resistant cells. SCO-101 was applied in 10, 20, 40 and 50 µM whereas paclitaxel was tested in 5, 10, 15 and 20 nM for a total of 144 h, where drug was only present in the first 72h (sFig 2). The SRPK1 inhibitor SPHINX31 was tested at 0.1; 0.5; 1 and 5 µM. The SRPK1 inhibitor SRPIN was tested at 1; 5; 10 and 50 µM. Both inhibitors were tested in combination with 5, 10, 15 and 20 nM Paclitaxel.
PANC-1-Pac cells treated with paclitaxel and SRPIN340 with four different concentrations of each for a total of 144 hours. Cell viability was evaluated by MTT assays and reported as percentage of untreated control (medium). Error bars indicate percentage standard deviation.

[1] = tested on: patients with colorectal cancer; conditions: SCO-101 with FOLFIRI, patients with prior progression on FOLFIRI, cited from earlier work
[2] = PANTAX phase Ib: plasma pharmacokinetics of SCO-101; format: in vivo, human
Description: Pharmacokinetics (PK) blood samples were drawn during the first cycle of treatment on day one of SCO-101 administration (6 time points), on day six (6 time points), and on day nine (72 h after last SCO-101 treatment). Plasma samples were analyzed for SCO-101 using a bioanalytical method (BM/2020/0998) developed and validated under study KF64YR at LabCorp (England). SCO-101 was extracted from human plasma by protein precipitation and analyzed by liquid chromatography using tandem mass spectrometry (LC–MS/MS). Pharmacokinetic parameters were determined by noncompartmental analysis using the software package SAS (version 9.4 or higher). The PK profile of SCO-101 was evaluated by maximum drug plasma concentration (Cmax) and area under the plasma drug concentration–time curve (AUC0 to 8 h).

[3] = set-up: method as in PMID 32628359; conditions: healthy volunteers, cited from earlier work

O=C(Nc1cc(C(F)(F)F)cc(C(F)(F)F)c1)Nc1ccc(Br)cc1-c1nnn[nH]1 [SCO-101]
effect on PANC-1-Pac cells (cell viability), drug alone (PANC-1-Pac cells): dose-dependent effect
ZIP synergy score with paclitaxel (PANC-1-Pac cells; PANC-1-Pac cells, SCO-101 + paclitaxel, score above 10 indicates synergy): 16.795
tumor response ([1]; 4 of 25 patients): 16%
mOS [1]: 10.4 months
increase in exposure with dose ([2]; 50-250 mg daily, Cmax and AUC0-8 h): approximately dose proportional
fraction of SCO-101 Cmax present at day 9 ([2]; average, 200 mg and 250 mg doses, 72 h after last SCO-101 treatment): 33%
accumulation of Cmax and AUC0-8 h ([2]; daily doses for 6 consecutive days, plasma, patients): two- to threefold
individuals who developed clinical jaundice ([3]; 150 mg dose cohort): Two
adverse events ([3]; single doses up to 200 mg or multiple doses up to 150 mg daily for 14 days): mild adverse events (AEs) and no serious adverse events (SAEs)

— publication PMC12048447, “PANTAX: a phase Ib clinical trial of the efflux pump inhibitor SCO-101 in combination with gemcitabine and nab-paclitaxel in non-resectable or metastatic pancreatic cancer” (Investigational New Drugs, 2025)
